# Columns and labels:
# rat [1] = details: Combined chronic toxicity/carcinogenicity; fischer; Oral; Gavage/Intubation; dose end: 2 year; group: systemic; systemic / in life observation / body weight / body weight
# mouse [2] = details: Subchronic oral toxicity in rodents, b6c3f1, Gavage/Intubation, dose end: 13 week, group: systemic
# rat [3] = details: Subchronic oral toxicity in rodents, fischer, Gavage/Intubation, dose end: 13 week, group: systemic
# mouse [4] = details: Combined chronic toxicity/carcinogenicity, b6c3f1, Oral, Gavage/Intubation, dose end: 2 year, group: systemic
# mouse [5] = details: Carcinogenicity; b6c3f1; Oral; Feed; dose end: 108 week; group: systemic; systemic / in life observation / body weight / body weight
# rat [6] = details: Subchronic oral toxicity in rodents, fischer, Feed, dose end: 7 week, group: systemic, systemic / in life observation / body weight / body weight
# rat [7] = details: Carcinogenicity; fischer; Oral; Feed; dose end: 107 week; group: systemic; systemic / in life observation / body weight / body weight
# mouse [8] = details: Subchronic oral toxicity in rodents, b6c3f1, Feed, dose end: 7 week, group: systemic, systemic / in life observation / body weight / body weight
# rat [9] = details: Other (NonGuideline or Guideline Not Listed), sprague dawley, Oral, Gavage/Intubation, dose end: 7 day, group: cannot be grouped
# primate = details: Other (NonGuideline or Guideline Not Listed); rhesus; Oral; Gavage/Intubation; dose end: 8 day; group: cannot be grouped; systemic / clinical chemistry / alanine aminotransferase (alt/sgpt) / alanine aminotransferase (alt/sgpt) + systemic / clinical chemistry / …
# rat [10] = details: Sub-acute repeat dose toxicity; sprague dawley; Oral; Gavage/Intubation; dose end: 16 day; group: systemic; systemic / organ weight / liver / absolute + systemic / organ weight / liver / relative to body weight + systemic / organ weight / liver / …
# rat [11] = details: Other (NonGuideline or Guideline Not Listed); sprague dawley; Oral; Gavage/Intubation; dose end: 5 day; group: cannot be grouped; systemic / clinical chemistry / alanine aminotransferase (alt/sgpt) / alanine aminotransferase (alt/sgpt) + systemic / clinical chemistry / …
# rat [12] = details: Sub-acute repeat dose toxicity; sprague dawley; Oral; Gavage/Intubation; dose end: 6 day; group: systemic; systemic / clinical chemistry / alanine aminotransferase (alt/sgpt) / alanine aminotransferase (alt/sgpt) + systemic / clinical chemistry / …
# rat [13] = details: Combined chronic toxicity/carcinogenicity, fischer, Oral, Gavage/Intubation, dose end: 103 week, group: systemic
# mouse [14] = details: Combined chronic toxicity/carcinogenicity, b6c3f1, Oral, Gavage/Intubation, dose end: 103 week, group: systemic
# rat [15] = details: Subchronic oral toxicity in rodents, fischer, Gavage/Intubation, dose end: 13 week, group: systemic; remark: listed apart in the source
# mouse [16] = details: Subchronic oral toxicity in rodents, b6c3f1, Gavage/Intubation, dose end: 13 week, group: systemic, systemic / in life observation / clinical signs / fur (altered appearance) + systemic / in life observation / clinical signs / reduced …
# [17] = systemic / pathology microscopic / kidney / nephropathy
# [18] = systemic / in life observation / body weight / body weight
# [19] = systemic / in life observation / body weight / body weight + systemic / in life observation / clinical signs / alopecia + systemic / in life…
# [20] = systemic / in life observation / body weight / body weight + systemic / pathology microscopic / kidney / nephropathy
# [21] = systemic / in life observation / body weight / body weight + systemic / pathology microscopic / kidney / nephropathy + systemic / pathology …
# [22] = systemic / clinical chemistry / alkaline phosphatase (alp/alk) / alkaline phosphatase (alp/alk) + systemic / clinical chemistry / glucose / …
# [23] = systemic / clinical chemistry / glucose / glucose + systemic / pathology gross / liver / discolored + systemic / pathology microscopic / …
# [24] = systemic / pathology microscopic / kidney / hyperplasia + systemic / pathology microscopic / kidney / mineralization
# [25] = systemic / pathology microscopic / kidney / hyperplasia + systemic / pathology microscopic / kidney / mineralization + systemic / pathology …
# [26] = systemic / pathology microscopic / liver / cytomegaly + systemic / pathology microscopic / liver / multinucleated
# [27] = systemic / in life observation / body weight / body weight + systemic / in life observation / clinical signs / fur (altered appearance) + …
# [28] = systemic / pathology microscopic / kidney / casts + systemic / pathology microscopic / kidney / regeneration
smiles,measurement,setting,value
CCCCCCc1ccc(O)cc1O [4-Hexylresorcinol],LEL,rat [1],125 mg/kg/day
same,LOAEL,rat [1],125 mg/kg/day
same,NEL,rat [1],62.5 mg/kg/day
same,NOAEL,rat [1],62.5 mg/kg/day
same,LEL,mouse [2]; [17],125 mg/kg/day
same,LOAEL,mouse [2]; [17],250 mg/kg/day
same,NEL,mouse [2]; systemic / pathology microscopic / kidney / nephropathy + systemic / in life observation / body weight / body weight + systemic / in life …,62.5 mg/kg/day
same,NOAEL,mouse [2]; systemic / pathology microscopic / kidney / nephropathy + systemic / in life observation / mortality / mortality,125 mg/kg/day
same,LEL,rat [3]; [18],125 mg/kg/day
same,LOAEL,rat [3]; [18],125 mg/kg/day
same,NEL,rat [3]; [19],62.5 mg/kg/day
same,NOAEL,rat [3]; [19],62.5 mg/kg/day
same,LOAEL,mouse [4]; [20],62.5 mg/kg/day
same,NOAEL,mouse [4]; [20],< 62.5 mg/kg/day
same,LEL,mouse [4]; [21],62.5 mg/kg/day
same,NEL,mouse [4]; [21],< 62.5 mg/kg/day
CCN(CC)C(=S)SSC(=S)N(CC)CC [Disulfiram],LEL,mouse [5],15 mg/kg/day
same,LOAEL,mouse [5],15 mg/kg/day
same,NEL,mouse [5],< 15 mg/kg/day
same,NOAEL,mouse [5],< 15 mg/kg/day
same,LEL,rat [6],75 mg/kg/day
same,LOAEL,rat [6],75 mg/kg/day
same,NEL,rat [6],< 75 mg/kg/day
same,NOAEL,rat [6],< 75 mg/kg/day
same,LEL,rat [7],15 mg/kg/day
same,LOAEL,rat [7],> 30 mg/kg/day
same,NEL,rat [7],< 15 mg/kg/day
same,NOAEL,rat [7],≥ 30 mg/kg/day
same,LEL,mouse [8],150 mg/kg/day
same,LOAEL,mouse [8],150 mg/kg/day
same,NEL,mouse [8],75 mg/kg/day
same,NOAEL,mouse [8],75 mg/kg/day
CCn1nc(Cc2ccccc2)cc1C1CCN(C[C@H]2C[C@H](N(C)[C@@H](C(=O)O)C(C)C)C[C@@H]2c2cccc(F)c2)CC1 [MK-578],LOAEL,rat [9]; [22],> 250 mg/kg/day
same,NOAEL,rat [9]; [22],≥ 250 mg/kg/day
same,LEL,rat [9]; [23],100 mg/kg/day
same,NEL,rat [9]; [23],< 100 mg/kg/day
same,LEL,primate,200 mg/kg/day
same,LOAEL,primate,> 200 mg/kg/day
same,NEL,primate,< 200 mg/kg/day
same,NOAEL,primate,≥ 200 mg/kg/day
same,LEL,rat [10],100 mg/kg/day
same,LOAEL,rat [10],> 100 mg/kg/day
same,NEL,rat [10],30 mg/kg/day
same,NOAEL,rat [10],≥ 100 mg/kg/day
same,LEL,rat [11],250 mg/kg/day
same,LOAEL,rat [11],> 500 mg/kg/day
same,NEL,rat [11],< 250 mg/kg/day
same,NOAEL,rat [11],≥ 500 mg/kg/day
same,LEL,rat [12],500 mg/kg/day
same,LOAEL,rat [12],> 500 mg/kg/day
same,NEL,rat [12],< 500 mg/kg/day
same,NOAEL,rat [12],≥ 500 mg/kg/day
C=C(C)[C@H]1CC=C(C)CC1 [D-Limonene],LOAEL,rat [13]; [24],75 mg/kg/day
same,NOAEL,rat [13]; [24],< 75 mg/kg/day
same,LEL,rat [13]; [25],75 mg/kg/day
same,NEL,rat [13]; [25],< 75 mg/kg/day
same,LOAEL,mouse [14]; [18],1000 mg/kg/day
same,NOAEL,mouse [14]; [18],500 mg/kg/day
same,LEL,mouse [14]; [26],500 mg/kg/day
same,NEL,mouse [14]; [26],250 mg/kg/day
same,LOAEL,rat [15]; [27],> 2400 mg/kg/day
same,NOAEL,rat [15]; [27],≥ 2400 mg/kg/day
same,LEL,rat [15]; [28],150 mg/kg/day
same,NEL,rat [15]; [28],< 150 mg/kg/day
same,LEL,mouse [16],1000 mg/kg/day
same,LOAEL,mouse [16],> 2000 mg/kg/day
same,NEL,mouse [16],500 mg/kg/day
same,NOAEL,mouse [16],≥ 2000 mg/kg/day

# From EPA's ToxRefDB 2
